This is an account of results in patent US9751858B2, “3-heteroaroylamino-propionic acid derivatives and their use as pharmaceuticals” (SANOFI, priority 2011, dated 2017).

One may read the IC50 as the concentration at which inhibition is half-maximal.

This test concerns the target T1, Recombinant human cathepsin A (Homo sapiens, UniProt P10619).
T1 construct: Recombinant human cathepsin A (residues 29-480, with a C-terminal 10-His tag); 10-His (C); purchased R&D Systems 1049-SE
T1 sequence (P10619 29-326 limits assumed): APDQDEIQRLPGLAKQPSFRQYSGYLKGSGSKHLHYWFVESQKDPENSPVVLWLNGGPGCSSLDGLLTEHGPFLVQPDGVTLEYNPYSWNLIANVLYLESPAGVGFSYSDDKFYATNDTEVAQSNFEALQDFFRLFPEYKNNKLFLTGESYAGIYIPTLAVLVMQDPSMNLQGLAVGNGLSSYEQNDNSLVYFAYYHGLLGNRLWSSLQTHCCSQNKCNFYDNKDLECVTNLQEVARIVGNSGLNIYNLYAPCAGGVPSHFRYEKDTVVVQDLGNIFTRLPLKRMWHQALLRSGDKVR
T1 sequence (P10619 327-480 limits assumed): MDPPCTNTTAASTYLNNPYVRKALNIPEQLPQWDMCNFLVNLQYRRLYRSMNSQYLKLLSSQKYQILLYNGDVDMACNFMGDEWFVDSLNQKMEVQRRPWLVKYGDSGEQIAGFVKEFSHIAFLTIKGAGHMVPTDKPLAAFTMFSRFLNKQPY
The test can be described thus: Cathepsin A inhibitory activity. Format: biochemical. As to conditions: activated recombinant human cathepsin A 833 ng/ml, Bodipy FL-labeled bradykinin 2 μM, pH 5.5, 15 min room temperature. How it is done: a) Cathepsin a Inhibitory Activity
Briefly, cathepsin A was incubated at 10 μg/ml with cathepsin L at 1 μg/ml in activation buffer (25 mM 2-(morpholin-4-yl)-ethanesulfonic acid (MES), pH 6.0, containing 5 mM dithiothreitol (DTT)) for 15 min at 37° C.
The activated cathepsin A was diluted in assay buffer (25 mM MES, pH 5.5, containing 5 mM DTT) and mixed with the test compound (dissolved in assay buffer containing (v/v) 3% DMSO) or, in the control experiments, with the vehicle in a multiple assay plate. After incubation for 15 min at room temperature, as substrate then bradykinin carrying an N-terminal ®Bodipy FL (4,4-difluoro-5,7-dimethyl-4-bora-3a,4a-diaza-s-indacene-3-propionyl) label (JPT Peptide Technologies GmbH; dissolved in assay buffer) was added to the mixture. […] After incubation for 15 min at room temperature the reaction was stopped by the addition of stop buffer (130 mM 2-(4-(2-hydroxy-ethyl)-piperazin-1-yl)-ethanesulfonic acid, pH 7.4, containing (v/v) 0.013%® Triton X-100, 0.13% Coating Reagent 3 (Caliper Life Sciences), 6.5% DMSO and 20 μM ebelactone B (Sigma, # E0886)).
Uncleaved substrate and product were then separated by a microfluidic capillary electrophoresis on a LabChip® 3000 Drug Discovery System (12-Sipper-Chip; Caliper Life Sciences) and quantified by determination of the respective peak areas. Substrate turnover was calculated by dividing product peak area by the sum of substrate and product peak areas, and the enzyme activity and the inhibitory effect of the test compound thus quantified.

Molecules are shown by their SMILES.

With `Cc1ccccc1[C@H](CC(=O)O)NC(=O)c1nc(-c2ccccc2)n(-c2ccccc2)n1` [Example 84, (S)-3-[(1,5-Diphenyl-1H-[1,2,4]triazole-3-carbonyl)-amino]-3-o-tolyl-propionic acid], the half-inhibitory concentration (IC50) turned out to be 53.8 nM. In the case of `CCn1nc(C(=O)N[C@@H](CC(=O)O)c2ccccc2C)cc1-c1ccccc1` [Example 21, (S)-3-[(1-Ethyl-5-phenyl-1H-pyrazole-3-carbonyl)-amino]-3-o-tolyl-propionic acid], the IC50 came out at 152 nM. For `O=C(O)C[C@H](NC(=O)c1nc(-c2ccccc2)n(-c2ccccc2)n1)c1ccccc1Cl` [Example 106, (S)-3-(2-Chloro-phenyl)-3-[(1,5-diphenyl-1H-[1,2,4]triazole-3-carbonyl)-amino]-propionic acid] the value was 119 nM; for `Cc1oc(-c2ccccc2F)nc1C(=O)N[C@@H](CC(=O)O)c1ccccc1` [Example 10, (S)-3-{[2-(2-Fluoro-phenyl)-5-methyl-oxazole-4-carbonyl]-amino}-3-phenyl-propionic acid], 2320 nM; for `Cc1ccccc1[C@H](CC(=O)O)NC(=O)c1nc(-c2ccccc2)oc1C` [Example 5, (S)-3-[(5-Methyl-2-phenyl-oxazole-4-carbonyl)-amino]-3-o-tolyl-propionic acid], 251 nM. In the case of `Cc1oc(-c2ccccc2)nc1C(=O)NC(CC(=O)O)Cc1ccccc1` (stereo not drawn) [Example 4, 3-[(5-Methyl-2-phenyl-oxazole-4-carbonyl)-amino]-4-phenyl-butyric acid], the 50% inhibitory concentration (IC50) is 12900 nM. As for `COc1ccc([C@H](CC(=O)O)NC(=O)CCc2nc(-c3ccccc3F)no2)cc1` [Example 73, (S)-3-{3-[3-(2-Fluoro-phenyl)-[1,2,4]oxadiazol-5-yl]-propionylamino}-3-(4-methoxy-phenyl)-propionic acid], the figure is more than 10000 nM. As for `O=C(O)CC(Cc1ccccc1)NC(=O)c1nc(-c2ccccc2)n(-c2ccccc2)n1` (stereo not drawn) [Example 86, 3-[(1,5-Diphenyl-1H-[1,2,4]triazole-3-carbonyl)-amino]-4-phenyl-butyric acid], the IC50 worked out at 2230 nM.

As to `O=C(O)C[C@H](NC(=O)c1nc(-c2ccccc2)oc1C(F)(F)F)c1cccc(F)c1` [Example 79, (S)-3-(3-Fluoro-phenyl)-3-[(2-phenyl-5-trifluoromethyl-oxazole-4-carbonyl)-amino]-propionic acid], the IC50 is more than 10000 nM. Consider `Cc1cccc([C@H](CC(=O)O)NC(=O)c2noc(-c3cccc(F)c3F)n2)c1` [Example 39, (S)-3-{[5-(2,3-Difluoro-phenyl)-[1,2,4]oxadiazole-3-carbonyl]-amino}-3-m-tolyl-propionic acid], for which the IC50 stood at 9370 nM. As for `O=C(O)C[C@H](NC(=O)CCc1nc(-c2ccccc2F)no1)c1cccc(F)c1` [Example 60, (S)-3-(3-Fluoro-phenyl)-3-{3-[3-(2-fluoro-phenyl)-[1,2,4]oxadiazol-5-yl]-propionylamino}-propionic acid], the figure is 22400 nM; as for `Cc1cccc([C@H](CC(=O)O)NC(=O)c2nc(-c3ccccc3F)oc2C)c1` [Example 27, (S)-3-{[2-(2-Fluoro-phenyl)-5-methyl-oxazole-4-carbonyl]-amino}-3-m-tolyl-propionic acid], 3490 nM.

As to `Cc1ccccc1[C@H](CC(=O)O)NC(=O)c1noc(-c2ccccc2F)n1` [Example 15, (S)-3-{[5-(2-Fluoro-phenyl)-[1,2,4]oxadiazole-3-carbonyl]-amino}-3-o-tolyl-propionic acid], the IC50 amounted to 4920 nM. As for `Cc1oc(-c2ccccc2)nc1C(=O)N[C@@H](CC(=O)O)c1ccc(Cl)cc1Cl` [Example 75, (S)-3-(2,4-Dichloro-phenyl)-3-[(5-methyl-2-phenyl-oxazole-4-carbonyl)-amino]-propionic acid], the figure is 1750 nM.

For the molecule `O=C(O)C[C@H](NC(=O)c1noc(-c2cccc(F)c2F)n1)c1ccc(F)cc1` [Example 44, (S)-3-{[5-(2,3-Difluoro-phenyl)-[1,2,4]oxadiazole-3-carbonyl]-amino}-3-(4-fluoro-phenyl)-propionic acid], the 50% inhibitory concentration (IC50) came to 5330 nM. For `Cc1ccccc1[C@H](CC(=O)O)NC(=O)c1nn(C)cc1NS(=O)(=O)Cc1ccccc1` [Example 117, (S)-3-[(1-Methyl-4-phenylmethanesulfonylamino-1H-pyrazole-3-carbonyl)-amino]-3-o-tolyl-propionic acid] the value was more than 10000 nM; for `Cc1ccc([C@H](CC(=O)O)NC(=O)c2nc(C)n(-c3ccccc3Cl)n2)cc1` [Example 55, (S)-3-{[1-(2-Chloro-phenyl)-5-methyl-1H-[1,2,4]triazole-3-carbonyl]-amino}-3-p-tolyl-propionic acid], 738 nM. Take `Cc1oc(-c2ccccc2)nc1C(=O)N[C@@H](CC(=O)O)c1cccc(F)c1` [Example 8, (S)-3-(3-Fluoro-phenyl)-3-[(5-methyl-2-phenyl-oxazole-4-carbonyl)-amino]-propionic acid]: the IC50 is 5310 nM. For `CC(C)c1oc(-c2ccccc2)nc1C(=O)NC(CC(=O)O)C1CCCCC1` (stereo not drawn) [Example 34, 3-Cyclohexyl-3-[(5-isopropyl-2-phenyl-oxazole-4-carbonyl)-amino]-propionic acid] the value was 1470 nM; for `CCc1nc(C(=O)N[C@@H](CC(=O)O)c2ccc(C)cc2)nn1-c1c(Cl)cccc1Cl` [Example 107, (S)-3-{[1-(2,6-Dichloro-phenyl)-5-ethyl-1H-[1,2,4]triazole-3-carbonyl]-amino}-3-p-tolyl-propionic acid], 545 nM; for `Cc1ccccc1[C@H](CC(=O)O)NC(=O)c1nc(C(C)C)n(-c2ccccc2Cl)n1` [Example 87, (S)-3-{[1-(2-Chloro-phenyl)-5-isopropyl-1H-[1,2,4]triazole-3-carbonyl]-amino}-3-o-tolyl-propionic acid], 95 nM. `O=C(O)CC(NC(=O)c1nc(-c2ccccc2)oc1C(F)(F)F)C1CCCCC1` (stereo not drawn) [Example 68, 3-Cyclohexyl-3-[(2-phenyl-5-trifluoromethyl-oxazole-4-carbonyl)-amino]-propionic acid]: the IC50 is 14800 nM. As for `CCCC1CCCCN1C(=O)c1cc(C(=O)N[C@@H](CC(=O)O)c2ccccc2C)nn1CC` (stereo partly drawn) [Example 114, (S)-3-{[1-Ethyl-5-(2-propyl-piperidine-1-carbonyl)-1H-pyrazole-3-carbonyl]-amino}-3-o-tolyl-propionic acid], the figure is 810 nM. Regarding `Cc1ccccc1[C@H](CC(=O)O)NC(=O)c1nc(-c2ccccc2F)oc1C` [Example 25, (S)-3-{[2-(2-Fluoro-phenyl)-5-methyl-oxazole-4-carbonyl]-amino}-3-o-tolyl-propionic acid], the IC50 was found to be 311 nM. For the molecule `Cc1ccccc1[C@H](CC(=O)O)NC(=O)c1noc(-c2cccc(F)c2F)n1` [Example 42, (S)-3-{[5-(2,3-Difluoro-phenyl)-[1,2,4]oxadiazole-3-carbonyl]-amino}-3-o-tolyl-propionic acid], the IC50 was more than 10000 nM. For `Cc1ccccc1[C@H](CC(=O)O)NC(=O)c1nc(C2CC2)n(-c2ccccc2Cl)n1` [Example 82, (S)-3-{[1-(2-Chloro-phenyl)-5-cyclopropyl-1H-[1,2,4]triazole-3-carbonyl]-amino}-3-o-tolyl-propionic acid] the value was more than 10000 nM.

Turning to `O=C(O)C[C@H](NC(=O)CCc1nc(-c2ccccc2F)no1)c1ccc(C(F)(F)F)cc1` [Example 111, (S)-3-{3-[3-(2-Fluoro-phenyl)-[1,2,4]oxadiazol-5-yl]-propionylamino}-3-(4-trifluoromethyl-phenyl)-propionic acid], the IC50 is more than 10000 nM.

In the case of `Cc1ccccc1[C@H](CC(=O)O)NC(=O)c1nn(Cc2ccccc2)c2ccccc12` [Example 72, (S)-3-[(1-Benzyl-1H-indazole-3-carbonyl)-amino]-3-o-tolyl-propionic acid], the IC50 came to 171 nM.

With `Cc1oc(-c2ccccc2)nc1C(=O)N[C@@H](CC(=O)O)c1ccc(F)cc1` [Example 9, (S)-3-(4-Fluoro-phenyl)-3-[(5-methyl-2-phenyl-oxazole-4-carbonyl)-amino]-propionic acid], the IC50 was found to be 5570 nM. As to `CC(C)c1oc(-c2ccccc2)nc1C(=O)NC(CC(=O)O)Cc1ccccc1` (stereo not drawn) [Example 45, 3-[(5-Isopropyl-2-phenyl-oxazole-4-carbonyl)-amino]-4-phenyl-butyric acid], the half-inhibitory concentration (IC50) came to 8880 nM.
